Test results as given in patent US9289496B2, “Lipid dipeptide and gel” (Nissan Chemical Industries, Ltd., priority 2008, dated 2016).
Residues, ends and D or L forms follow the SMILES beside them.

What was measured:
Assay type in all cases: physicochemical
[1] = Evaluation of gelation of free N-palmitoyl-Gly-His in water and at various pHs; design: key: a sample that formed a gel is shown as “O”; a sample that formed a sol is shown as “X”; a sample without evaluation is shown as “-”
Procedure: Free N-palmitoyl-Gly-His prepared in Example 4 was placed into a screw tube (Maruemu No. 1, manufactured by Maruemu Corp.). Each of the various solutions shown in Table 4 was added into the screw tube so as to have a free N-palmitoyl-Gly-His (also called Pal-GH (free)) concentration of 0.1%, 0.2%, 0.5%, 1%, or 2% (w/v). The mixture was heated at 100° C. with a constant temperature heat block (manufactured by Nippon Genetics Co., Ltd.), and then allowed to stand at room temperature.
In Table, a sample that formed a gel is shown as “O”, a sample that formed a sol is shown as “X”, and a sample without evaluation is shown as “-”.

[2] = Evaluation of gelation of free N-palmitoyl-Gly-His in propylene glycol (PG) solution; design: key: a sample that formed a gel is shown as “O”; a sample that partially formed a gel is shown as “A”; a sample that formed no gel is shown as “X”
Procedure: Free N-palmitoyl-Gly-His prepared in Example 4 was placed into a screw tube (Maruemu No. 1, manufactured by Maruemu Corp.). Each of the propylene solutions having various concentrations shown in Table 6 was added into the screw tube so as to have a free N-palmitoyl-Gly-His concentration of 0.25%, 0.5%, or 1% (w/v). The mixture was heated at 100° C. with a constant temperature heat block (manufactured by Nippon Genetics Co., Ltd.), and then allowed to stand at room temperature.
In Table, a sample that formed a gel is shown as “O”, a sample that partially formed a gel is shown as “A”, and a sample that formed no gel is shown as “X”.

[3] = Gelation of free N-palmitoyl-Gly-His in 65% (w/w) propylene glycol aqueous solution containing lactic acid and potassium lactate; conditions: 65% (w/w) propylene glycol aqueous solution with 5% (w/w) potassium lactate:lactic acid (95:5)
Procedure: (§1) Free N-palmitoyl-Gly-His (25 mg) obtained in Example 4 was placed in a screw tube (Maruemu Corp., No. 7). Sixty-five percent (w/w) propylene glycol aqueous solution was added so as to have a concentration of 0.25% (w/v), and a mixture of potassium lactate:lactic acid (95:5) was further added so as to have a concentration of 5% (w/w) with respect to the whole solution. The mixture was heated with a dry bath incubator (manufactured by First Gene) at 75° C. for 10 minutes. The obtained solution was transferred into a spray vial (Maruemu Corp., No. 3L), and allowed to cool to room temperature.
as §1, with “N-palmitoyl-Gly-His (80” for “N-palmitoyl-Gly-His (25”, “placed into” for “placed in”, “of 0.2%” for “of 0.25%”, “at 93°” for “at 75°”, “for 5” for “for 10”

[4] = Gelation test when adding methylparaben; conditions: aqueous solution of 0.2 wt % methylparaben; 0.25, 0.5 or 1.0 wt % tested
Procedure: An aqueous solution of 0.2 wt % methylparaben was prepared, and into the solution, free N-palmitoyl-Gly-His prepared in Example 4 was added so as to have a concentration of 0.25, 0.5, or 1.0 wt % to prepare a suspended mixture solution. Each mixture solution was heated at 95 to 99° C. until dissolved (for 6 to 25 minutes), and then allowed to cool to room temperature.

[5] = Preparation of film from sheet-shaped gel; conditions: 0.5% (w/v); 30%, 20% and 10% glycerin aqueous solutions; dissolved at 80° C.
Procedure: Into a screw tube (Maruemu No. 3, manufactured by Maruemu Corp.), 3 mg of N-palmitoyl-Gly-His.TFA salt prepared in Example 1 was placed. Into the screw tube, 0.6 ml of Japanese Pharmacopoeia purified water (Kyoei Pharmaceutical Industries, Ltd.) was added so as to have a concentration of 0.5% (w/v). The whole was heated at 105° C. for 5 minutes, and then allowed to stand at room temperature to prepare a gel of 0.5% N-palmitoyl-Gly-His.TFA salt.
Into the gel, 2 ml of Japanese Pharmacopoeia purified water (Kyoei Pharmaceutical Industries, Ltd.) was further added and sheet formation was observed from a wide view for 72 hours.
Using 10 mg of free N-palmitoyl-Gly-His, each 2.0 mL of 30%, 20%, and 10% glycerin aqueous solutions was added so as to become a 0.5% (w/v) solution, and the mixture solution was heated and dissolved at 80° C. The solution was placed in a glass petri dish having an inner diameter of 2.2 cm and allowed to cool at room temperature. […] Then, the obtained gel was transferred onto a glass substrate.

CCCCCCCCCCCCCCCC(=O)NCC(=O)N[C@@H](Cc1c[nH]cn1)C(=O)O [Example 4, N-Palmitoyl-Gly-His] (HELM PEPTIDE1{[CCCCCCCCCCCCCCCC(=O)[*:2]].G.H}$$$$V2.0)
gelation was observed in each case: Gelation [5]
Δ: Gelation ([2]; 0.25% (w/v), mass fraction PG/water + PG 0.1) | Gelation ([2]; 0.25% (w/v), mass fraction PG/water + PG 0.2) | Gelation ([2]; 0.25% (w/v), mass fraction PG/water + PG 0.3) | Gelation ([2]; 0.5% (w/v), mass fraction PG/water + PG 0.1) | Gelation ([2]; 0.5% (w/v), mass fraction PG/water + PG 0.2)
≥ 0.5 wt %: Concentration at which a transparent gel was obtained [4]
X: Gelation ([1]; 0.1% (w/v), water) | Gelation ([1]; 0.2% (w/v), water) | Gelation ([1]; 0.5% (w/v), phosphate buffer solution pH 9) | Gelation ([1]; 0.5% (w/v), phosphate buffer solution pH 10) | Gelation ([1]; 0.5% (w/v), water) | Gelation ([2]; 0.25% (w/v), mass fraction PG/water + PG 1.0) | Gelation ([2]; 0.5% (w/v), mass fraction PG/water + PG 1.0) | Gelation ([2]; 1.0% (w/v), mass fraction PG/water + PG 1.0)
◯: Gelation ([1]; 0.1% (w/v), phosphate buffer solution pH 3) | Gelation ([1]; 0.1% (w/v), phosphoric acid aqueous solution pH 2) | Gelation ([1]; 0.2% (w/v), phosphate buffer solution pH 3) | Gelation ([1]; 0.2% (w/v), phosphate buffer solution pH 5) | Gelation ([1]; 0.2% (w/v), phosphate buffer solution pH 6) | Gelation ([1]; 0.2% (w/v), phosphoric acid aqueous solution pH 2) | Gelation ([1]; 0.5% (w/v), phosphate buffer solution pH 3) | Gelation ([1]; 0.5% (w/v), phosphate buffer solution pH 5) | Gelation ([1]; 0.5% (w/v), phosphate buffer solution pH 6) | Gelation ([1]; 0.5% (w/v), phosphate buffer solution pH 7.5) | Gelation ([1]; 0.5% (w/v), phosphoric acid aqueous solution pH 2) | Gelation ([1]; 1.0% (w/v), phosphate buffer solution pH 5) | Gelation ([1]; 1.0% (w/v), phosphate buffer solution pH 6) | Gelation ([1]; 1.0% (w/v), phosphate buffer solution pH 7.5) | Gelation ([1]; 1.0% (w/v), phosphate buffer solution pH 9) | Gelation ([1]; 1.0% (w/v), phosphate buffer solution pH 10) | Gelation ([1]; 1.0% (w/v), water) | Gelation ([1]; 2.0% (w/v), phosphate buffer solution pH 9) | Gelation ([1]; 2.0% (w/v), phosphate buffer solution pH 10) | Gelation ([1]; 2.0% (w/v), water) | Gelation ([2]; 0.25% (w/v), mass fraction PG/water + PG 0.5) | Gelation ([2]; 0.25% (w/v), mass fraction PG/water + PG 0.7) | Gelation ([2]; 0.5% (w/v), mass fraction PG/water + PG 0.3) | Gelation ([2]; 0.5% (w/v), mass fraction PG/water + PG 0.5) | Gelation ([2]; 0.5% (w/v), mass fraction PG/water + PG 0.7) | Gelation ([2]; 1.0% (w/v), mass fraction PG/water + PG 0.1) | Gelation ([2]; 1.0% (w/v), mass fraction PG/water + PG 0.2) | Gelation ([2]; 1.0% (w/v), mass fraction PG/water + PG 0.3) | Gelation ([2]; 1.0% (w/v), mass fraction PG/water + PG 0.5) | Gelation ([2]; 1.0% (w/v), mass fraction PG/water + PG 0.7)
gelation: Gelation ([3]; 0.2% (w/v), heated 93° C., 5 minutes) | Gelation ([3]; 0.25% (w/v), heated 75° C., 10 minutes)
